US6919380B2, “Derivatives of C2-substituted indan-1-ol systems for the prophylaxis or treatment of obesity” (Aventis Pharma Deutschland GmbH., priority 2001, dated 2005)

Tests used:
[1] = system: female NMRI mice; test: Anorectic action: cumulative evaporated milk consumption after removal of feed for 24 hours; format: in vivo, mouse; conditions: dose 10 mg/kg (ip or po, not specified)
Experimental: The activity of the compounds of the formula I was assayed as follows: […]
The anorectic action was tested on female NMRI mice. After removal of feed for 24 hours, the preparation to be tested was administered intraperitoneally (ip) or by gavage (po). The animals were housed singly and, with free access to drinking water, they were offered evaporated milk 30 minutes after administration of the preparation. The consumption of evaporated milk was determined and the general behavior of the animals was monitored every half an hour for 7 hours. The measured milk consumption was compared to that of vehicle-treated control animals.

CC(=O)OC1c2ccc(Cl)cc2CC1S(C)(=O)=O (stereo not drawn) [Example 1, 1-Acetoxy-5-chloro-2-methylsulfonylindane]
melting point: 136 °C
Reduction in cumulative milk consumption as % of the control ([1]; compared with control animals): 81%
cumulative milk consumption by treated animals ([1]; milk offered 30 minutes after administration, monitored for 7 hours): 5/0.28 ml
